Experiments:
[1] = test system: primary embryonic hippocampal cultures; assay: VitE complementation (vitE depletion) test on primary neuronal cultures; format: cell-based, rats; conditions: for rescue of survival of vitE depleted cultures: 10^-7 M and 10^-6 M
Description: Primary embryonic hippocampal cultures were prepared essentially as described previously (Pauwels et al., Van Aschouw, H. P., Peeters, L., Moeremans, M., Leysen, J. E. (1992) Chronic treatment with sabeluzole protects cultured rat brain neurons from the neurotoxic effects of excitatory amino acids. Synapse, 12:271-280). Hippocampal formations of rats at embryonic day 17 were dissected and dissociated in 0.05% trypsin, 0.1 mg/ml DNase I in DMEM (Dulbecco Modified Eagle Medium). Heat-inactivated horse serum (HS) was added to a concentration of 4%, and the cells were centrifuged, washed with DMEM, and resuspended in DMEM/Ham's F12 (3:1) containing 10% HS. The cells were plated at a density of 4×10^5 cells/cm^2 in poly L-lysine (0.001%) precoated multiwell-24 plates. On day 1 in culture, the medium was changed to chemically defined CDM-R12 medium (DMEM-HEPES/Ham's F12 (3:1) containing 0.26% bovine serum albumin, 30 nM sodium selenite, 3 nM 3,3',5 triiodo-L-thyronine, 0.35 μM retinol, 0.3 μM retinol acetate, 2.3 μM DL-a-tocopherol, 2.1 μM DL-a-tocopherol acetate, 3.6 μM linolenic acid, 3.6 μM linoleic acid, 0.125% human transferrin, […], 57.7 nM corticosterone, 49 U/I insulin, 0.4 μM biotin, 10 μM L-carnitine, 83 μM D(+)-galactose, 3.3 μM glutathione, 10 μM ethanolamine, 0.1 mM putrescine; Romijn, H. J., van Huizen, F., Wolters, P. S. (1984) Towards an improved serum-free, chemically defined medium for long-term culturing of cerebral cortex tissue. Neurosci. Behav. Rev., 8:301-334). Acute and prolonged pretreatment of the, cultures was essentially as described previously (Pauwels et al., 1992). Drugs were dissolved, and diluted in 10% or 1% hydroxypropyl-β-cyclodextrin such that the final concentrations of the solvent in the acute and chronic exposures were 0.1% and 0.01% respectively. Compound A as used in the following examples is [(RRSR)+(RRRS)+(SSSR) +(SSRS)]-α-[[[2-(chroman-2-yl)-2-hydroxy-ethyl]amino]methyl]-6-hydroxy-2-chromanmethanol ethanedioate (1:1).
For vitE depletion experiments, primary cultures were set up as above, but on day 1 in culture, the medium was changed to chemically defined CDM-R12 medium with (control) or without DL-a-tocopherol (vitE) and DL-a-tocopherol acetate, in the presence or absence of test coumpound. […] Addition of compounds could rescue the cultures. […] The EC50 for complementation of vitE refers to the concentration of the compound required to restore culture survival to 50% of the survival seen for the culture grown in vitE supplemented medium. Seven concentrations of each compound were tested in triplicate, the number of independent experiments is indicated in the table, and the mean EC50 -value±SD was calculated.
Primary neuronal cultures depend on the presence of the antioxidant vitE in the culture medium for survival in vitro. When vitE depleted medium is used to grow the cultures, survival drops to ±20% of control. Compounds with antioxidative properties are able to complement the lack of vitE, and as such can when added to the culture medium, rescue vitE devoid cultures. Several nebivolol derivatives were tested at 10^-7 M and 10^-6 M in the vitE depletion test on primary neuronal cultures.
When nebivolol derivatives were administered during culture, the cultures could be rescued to a certain extent. 100% vitE complementation refers to the survival of a cell culture which is indifferent from a vitE containing cell culture.
When hydroxynebivolol was administered during culture, the cultures could be rescued. The EC50 refers to the concentration at which the culture is rescued for 50%, as measured by cytoplasmic LDH activity.

β-1 = conditions: EP-0,334,429; cited from earlier work
[2] = atenolol, propanolol, prazosin, hydralazine and its own (SRRR) enantiomer; EP-0,334,429; cited from earlier work

| SMILES | % vitE complementation ([1]; 10^-6 M) [%] | % vitE complementation ([1]; 10^-7 M) [%] | rescue of survival of vitE depleted cultures [1] | β-1 blocking activity (β-1) | potentiation of antihypertensive agents [2] |
| --- | --- | --- | --- | --- | --- |
| O[C@H](CNC[C@@H](O)[C@H]1CCc2cc(F)ccc2O1)[C@@H]1CCc2cc(F)ccc2O1 [Compound 1-nebivolol, (SRRR) α,α'-iminobis(methylene)bis[6-fluoro-2-chroman-methanol]] | 24 ± 26 | 22 ± 20 | able to rescue survival of vitE depleted cultures to a certain extent | potent and selective β-1 blocking agent |  |
| O[C@@H](CNC[C@H](O)[C@H]1CCc2cc(F)ccc2O1)[C@@H]1CCc2cc(F)ccc2O1 [d-nebivolol, (RSSS) α,α'-iminobis(methylene)bis[6-fluoro-2-chroman-methanol]] | 19 ± 22 | 12 ± 17 | able to rescue survival of vitE depleted cultures to a certain extent | not to be a potent β-1 blocking agent | potentiator for a series of antihypertensive agents |

Source: patent publication US5874461A, “Use of Nebivolol as an anti-atherogenic” (priority 1995, dated 1999)
